The text below walks through data of publication PMC11207065, “Abietane Diterpenes from Medusantha martiusii and Their Anti-Neuroinflammatory Activity” (Molecules, 2024).

Assay type in all cases: cell-based
Data set [1] can be described thus: Cell viability (MTT assay) in BV2 cells. The following applies: mouse, BV2 microglial cells, mean ± SEM (n = 5). On the procedure: The cytotoxicity of compounds 1–7 was evaluated using the MTT (3-(4,5-dimethylthiazol-2-yl)-2,5-diphenyltetrazolium bromide) assay. The microglial BV2 cell line was obtained from the Rio de Janeiro Cell Bank (BCRJ), Brazil. The cells were cultured in Roswell Park Memorial Institute medium (RPMI; Sigma Aldrich, St. Louis, MO, USA) supplemented with 10% fetal bovine serum (FBS; Gibco, Grand Island, NY, USA) and 1% penicillin-streptomycin (Sigma Aldrich) at 37 °C with 5% CO2. Cells were seeded into 96-well plates at 1 × 10^5 cells/mL and incubated overnight. After that, the cells were incubated with compounds 1 to 7 (12.5, 25, or 50 μM) in five replicates for 24 h. Then, 110 μL of the supernatant were removed, and 10 μL of MTT solution (5 mg/mL) (Sigma Aldrich, St. Louis, MO, USA) were added. The plates were further incubated for four hours, followed by the addition of sodium dodecyl sulfate (SDS) (100 µL/well) to dissolve the formazan. Optical densities were measured using a spectrophotometer (BioTek Instruments microplate reader, Sinergy HT, Winooski, VT, USA) at a wavelength of 570 nm.

The test system of data set [2] is TNF-α release from LPS and IFN-γ-stimulated BV2 cells. As to the kind of experiment: TNF-α measurement (ELISA) in LPS and IFN-γ-stimulated BV2 cells. The following applies: 12.5 µM, 24 h. As to the method: (§1) To determine the NO and TNF-α levels, BV2 cells were seeded in 96-well plates (1 × 10^6 cells/mL) in RPMI medium supplemented with 10% FBS and 1% penicillin-streptomycin in a 5% CO2 incubator at 37 °C. After four hours, the cells were exposed to LPS (500 ng/mL, Sigma Aldrich) and IFN-γ (5 ng/mL, Thermo Fisher) in the absence or presence of compounds 1 to 7 at a final concentration of 12.5 µM (for NO and TNF-α measurement) or 3.125–25 µM (to calculate the IC50 values on NO production inhibition), in five replicates. Quercetin (20 µM) was used as a positive control. After 24 h, cell-free supernatants were collected for NO quantification using the Griess method or stored at −80 °C for cytokine concentration determination. The TNF-α concentrations in the BV2 cell culture supernatants were assessed via enzyme-linked immunosorbent assay (ELISA) with an Invitrogen kit (Thermo Fisher, Viena, Austria).

Data set [3] deals with nitric oxide production in LPS and IFN-γ-stimulated BV2 cells. As to the kind of experiment: Nitric oxide (nitrite, Griess method) measurement in LPS and IFN-γ-stimulated BV2 cells. The following applies: 24 h; for Effect on nitrite (NO) levels versus control group: LPS and IFN-γ-stimulated BV2 cells; for IC50: Mus musculus, BV-2, LPS (500 ng/mL) and IFN-γ (5 ng/mL)-stimulated BV2 cells, 3.125–25 µM, mean ± SEM, read-out: IC50 on nitric oxide production inhibition. As to the method:
as §1

`CC(C)c1cc2c(cc1O)C1(C)CC(O)C(O)C(C)(C)C1CC2=O` (stereo not shown) [Compound 2, Medusanthol B]: in data set [1], the viability – broadly, the share of living cells, or the viability signal relative to a control – at 24 h, 12.5 µM came out at 81.93 ± 0.65%; the viability at 24 h, 25 µM amounted to 85.84 ± 0.85%; the viability at 24 h, 50 µM turned out to be 75 ± 3.11%. Also, in data set [2], the “Effect on TNF-α levels versus control group” value was “significantly reduced TNF-α levels”. The “Effect on nitrite (NO) levels versus control group” value in data set [3] (12.5 µM) is “significantly reduced nitrite levels”. In addition, in data set [3], the IC50 (commonly the concentration at which inhibition is half-maximal) worked out at 15.5 ± 7.56 µM.

In data set [1], `CC(C)c1cc2c(cc1O)C1(C)CC(O)C(O)C(C)(C)C1CC2` (stereo not shown) [Compound 3, Medusanthol C] showed a viability at 24 h, 12.5 µM of 87.4 ± 2.35%; a viability at 24 h, 25 µM of 82.2 ± 0.96%; a viability at 24 h, 50 µM of 76.4 ± 3.14%. For the same compound, in data set [3] (12.5 µM), the “Effect on nitrite (NO) levels versus control group” value is listed as “significantly reduced nitrite levels”.

With `CC(C)c1cc2c(cc1O)[C@@]1(C)C[C@@H](O)CC(C)(C)[C@@H]1CC2` [Compound 4, salviol], in data set [1], the viability at 24 h, 12.5 µM was 92.29 ± 0.6%; the viability at 24 h, 25 µM amounted to 85.41 ± 0.82%; the viability at 24 h, 50 µM is 73.6 ± 2.73%. Further, in data set [3] (12.5 µM), the “Effect on nitrite (NO) levels versus control group” value is listed as “significantly reduced nitrite levels”.

In the case of `CC(=O)OC1CC(C)(C)C2CC3OC(=O)C2(C1)c1cc(O)c(C(C)C)cc1O3` (stereo not shown) [Compound 7, Medusanthol E], in data set [1], the viability at 24 h, 12.5 µM worked out at 82.74 ± 0.62%; the viability at 24 h, 25 µM came to 84.9 ± 1.4%; the viability at 24 h, 50 µM stood at 81.8 ± 1.24%. Moreover, in data set [3] (12.5 µM), the “Effect on nitrite (NO) levels versus control group” value was “significantly reduced nitrite levels”.

For the compound `O=c1c(O)c(-c2ccc(O)c(O)c2)oc2cc(O)cc(O)c12` [Quercetin, quercetin, reference compound], the “Effect on nitrite (NO) levels versus control group” value in data set [3] (20 µM (positive control)) is recorded as “significantly reduced nitrite levels”. Moreover, in data set [3], the IC50 came out at 11.8 ± 1.5 µM.

In data set [1], `CC(C)C1=CC(=O)C2=C(C1=O)C(O)CC1C2(C)CC(O)C(O)C1(C)C` (stereo not shown) [Compound 1, Medusanthol A] yielded a viability at 24 h, 12.5 µM of 88 ± 2.57%; a viability at 24 h, 25 µM of 85.1 ± 1.54%; a viability at 24 h, 50 µM of 76.3 ± 2.16%. Further, the “Effect on TNF-α levels versus control group” value in data set [2] was “significantly reduced TNF-α levels”. The “Effect on nitrite (NO) levels versus control group” value in data set [3] (12.5 µM) was “significantly reduced nitrite levels”. In data set [3], the IC50 came out at 3.12 ± 0.75 µM.

Turning to `CC(=O)OC1CC(C)(C)C2CCc3cc(C(C)C)c(O)cc3C2(C(=O)O)C1` (stereo not shown) [Compound 5, Medusanthol D], in data set [1], the viability at 24 h, 12.5 µM is 86.2 ± 4.53%; the viability at 24 h, 25 µM came to 86.8 ± 2.52%; the viability at 24 h, 50 µM was found to be 82.9 ± 3.63%. In addition, the “Effect on nitrite (NO) levels versus control group” value in data set [3] (12.5 µM) was “No significant effect”.

In data set [1], `CC(C)c1cc2c(cc1O)[C@@]1(C)C[C@@H](O)CC(C)(C)[C@@H]1CC2=O` [Compound 6, 2α-hydroxysugiol] displayed a viability at 24 h, 12.5 µM of 85.7 ± 1.11%; a viability at 24 h, 25 µM of 81.7 ± 1.37%; a viability at 24 h, 50 µM of 66.8 ± 3.61%. For the same compound, the “Effect on nitrite (NO) levels versus control group” value in data set [3] (12.5 µM) was “No significant effect”.
